Blank lines part the entries; values can stand above or below the compound they belong to. Calls of active or inactive are those of the source. The calls are words filed in the database; no cut-off is given here.
Legend:
[1] = test system: HUVEC; assay: Antiproliferative activity against HUVEC after 70 hrs by alamar blue assay; type: cell-based; details: Homo sapiens
[2] = test system: HBL-100; assay: Antiproliferative activity against human HBL100 cells after 70 hrs by alamar blue assay; type: cell-based; details: HBL-100, 70 h
[3] = test system: HBL-100; assay: Cytotoxicity against human HBL100 cells assessed as reduction in cell viability after 70 hrs by alamar blue assay; type: cell-based; details: HBL-100, 70 h
[4] = test system: BEAS-2B; assay: Cytotoxicity against human BEAS2B cells assessed as reduction in cell viability after 70 hrs by alamar blue assay; type: cell-based
[5] = test system: HUVEC; assay: Cytotoxicity against HUVEC assessed as reduction in cell viability after 70 hrs by alamar blue assay; type: cell-based; details: Homo sapiens
[6] = test system: BEAS-2B; assay: Antiproliferative activity against human BEAS2B cells after 70 hrs by alamar blue assay; type: cell-based
[7] = test system: MIA PaCa-2; assay: Cytotoxicity against human MIAPaCa2 cells assessed as reduction in cell viability after 70 hrs by alamar blue assay; type: cell-based; details: MIA PaCa-2, 70 h
[8] = test system: A549; assay: Disruption of microtubule network in human A549 cells at 5 times antiproliferative IC50 after 1 to 12 hrs by immunofluorescence assay; type: cell-based
[9] = test system: MIA PaCa-2; assay: Antiproliferative activity against human MIAPaCa2 cells after 70 hrs by alamar blue assay; type: functional, cell-based; details: MIA PaCa-2, 70 h
[10] = species on record: Homo sapiens; assay: Disruption of microtubule network in human MIAPaCa2 cells at 5 times antiproliferative IC50 after 1 to 12 hrs by immunofluorescence assay; type: cell-based
[11] = test system: MIA PaCa-2; assay: Antiproliferative activity against human MIAPaCa2 cells preincubated for 4 hrs followed by 0.6 J/cm2 light irradiation for 10 mins and measured after 70 hrs by alamar blue assay; type: functional, cell-based; details: MIA PaCa-2, light or radiation study
[12] = Selectivity ratio of IC50 for antiproliferative activity against human MIAPaCa2 cells under dark condition to IC50 for antiproliferative activity against human MIAPaCa2 cells under 0.6 J/cm2 light irradiation; type: functional, MIA PaCa-2
[13] = Induction of supercoiled plasmid complementary DNA3 cleavage at 100 uM after 1 hr by gel electrophoresis method

Compound: COc1cccc2c1C(=O)c1c(O)c3c(c(O)c1C2=O)C[C@@](O)(C(=O)CO)C[C@@H]3O[C@H]1C[C@H](N)[C@H](O)[C@H](C)O1 [DOXORUBICIN]
IC50 [1]: 150 nM
IC50 [2]: 80 nM
IC50 [3]: 8500 nM
IC50 [4]: 18600 nM
IC50 [5]: 480 nM
IC50 [6]: 2400 nM
IC50 [7]: 3100 nM

IC50 [9]: 4700 nM
Compound: [O-][S+](CC#Cc1cc2ccccc2cc1C#CCO)c1c(F)c(F)c(F)c(F)c1F (configuration not stated)
Activity [8]: Active
Activity [10]: Active

IC50 [9]: 7800 nM
Compound: [O-][S+](CC#Cc1ccccc1)c1c(F)c(F)c(F)c(F)c1F (configuration not stated)

IC50 [9]: 2400 nM
Compound: [N-]=[N+]=NCC#Cc1ccccc1C#CC[S+]([O-])c1c(F)c(F)c(F)c(F)c1F (configuration not stated)

IC50 [9]: 120 nM
Compound: Nc1ccn([C@@H]2O[C@H](CO)[C@@H](O)C2(F)F)c(=O)n1 [GEMCITABINE]

IC50 [9]: 1600 nM
Compound: CCOC(=O)c1ccc(C#CCO)c(C#CC[S+]([O-])c2c(F)c(F)c(F)c(F)c2F)c1 (configuration not stated)

IC50 [9]: 3000 nM
IC50 [11]: 500 nM
Compound: CCCCC(=O)OCC#Cc1ncccc1C#CC[S+]([O-])c1c(F)c(F)c(F)c(F)c1F (configuration not stated)
Ratio IC50 [12]: 6

Activity [13]: inactive
IC50 [9]: 2600 nM
Compound: [O-][S+](CC#Cc1ccccc1C#CCO)c1c(F)c(F)c(F)c(F)c1F (configuration not stated)
Activity [8]: Active
Activity [10]: Active

IC50 [9]: > 10000 nM
Compound: [O-][S+](CC#Cc1ccccc1C#CCCCCO)c1c(F)c(F)c(F)c(F)c1F (configuration not stated)

Source: ChEMBL document CHEMBL4196030, “Enediynes bearing polyfluoroaryl sulfoxide as new antiproliferative agents with dual targeting of microtubules and DNA” (Eur J Med Chem, 2018)
